Experimental findings from patent US10174045B2, “Benzopyrylium compounds” (Pierce Biotechnology, Inc., priority 2012, dated 2019) are described below.

Each structure is given as a SMILES string. Marks after values point to notes of the source that are not given here.

One data set has as its system lamin B1 in U2OS cells. Kind of data set: Immunofluorescence cell based assay, detection of lamin B1 with dye-GAR. The settings on record: for quenching with molar excess: lamin B1 experiment. As to the method:
(§1) In the indicated experiments, the inventive compounds and commercial dye were evaluated for immunofluorescence in a cell based assay using the following protocol. Frozen U20S cell plates stored at −80° C. were thawed for 30 minutes at 50° C. Storage buffer (PBS) was removed and the cells were permeabilized for 15 minutes with 0.1% Triton-X100 in 1×PBS buffer (100 μl/well). The cell plate was blocked for 60 minutes in 2% BSA/PBS-0.1% Triton-X100. Primary antibody, either rabbit anti-lamin B1 or rabbit anti-HDAC2 (10 μg/ml), diluted in 2% BSA/PBS-0.1% Triton-X100 was added to the plate and incubated for one hour at room temperature. Control wells contained only 2% BSA/PBS-0.1% Triton-X100 blocker. After incubation, antibody solution was removed from the plate and the plate was washed three times with 100 μl/well PBS-0.5% Tween-20 and one time with 100 μl/well PBS. GAR secondary antibodies labeled with various molar excess of the inventive or commercial compound were diluted to 4 μg/ml in PBS and incubated for one hour at room temperature. Plates were washed three times with 100 μl/well PBST and once with 100 μl/well PBS, and Hoechst (diluted to 0.1 μg/ml in PBS) was added to each well (100 μl/well). The plates were scanned on ArrayScan Plate Reader.
Quantitative analysis of the data of FIGS. 11-13, expressed as Mean Total Intensity, which is the average total intensity of all pixels within a defined area or defined primary object such as a nucleus, is shown below; “Neg” indicates negative control.

The next data set has as its system HDAC2 in U2OS cells. Kind of data set: Immunofluorescence cell based assay, nuclear detection of HDAC2 with dye-GAR. Conditions: for quenching with molar excess: HDAC2 experiment. As to the method:
as §1
Quantitative analysis of the data of FIGS. 14-16, expressed as Mean Total Intensity, which is the average total intensity of all pixels within a defined area or defined primary object such as a nucleus, is shown below; “Neg” indicates negative control.

Another data set deals with NCoR2 in U2OS cells. Kind of data set: Immunofluorescence cell based assay, detection of NCoR2 with dye-GAM. The settings on record: for quenching with molar excess: NCoR2 experiment. As to the method:
(§2) In the indicated experiments, the inventive compounds and commercial dye were evaluated for immunofluorescence in a cell based assay using the following protocol. Frozen U20S cell plates which were stored at −80° C. were thawed for 30 minutes at 50° C. Storage buffer (PBS) was removed and cells were permeabilized for 15 minutes with 0.1% Triton-X100 in 1×PBS buffer (100 μl/well). The cell plate was blocked for 60 minutes in 2% BSA/PBS-0.1% Triton-X100. Primary antibody, either mouse anti-ezrin (1.3 μg/ml) or mouse anti-NCoR2 (20 μg/ml), diluted in 2% BSA/PBS-0.1% Triton-X100 was added to the plate and incubated for one hour at room temperature. Control wells contained only 2% BSA/PBS-0.1% Triton-X100 blocker. After incubation, the antibody solution was removed from the plate and the plate was washed three times with 100 μl/well of PBS-0.5% Tween-20 and one time with 100 μl/well PBS. GAM secondary antibodies labeled with various molar excess of the inventive or commercial compound were diluted to 4 μg/ml in PBS and incubated for one hour at room temperature. The plates were washed three times with 100 μl/well of PBST and once with 100 μl/well PBS, and Hoechst (diluted to 0.1 μg/ml in PBS) was added to each well (100 μl/well). The plates were scanned on ArrayScan Plate Reader.
NCoR2 was detected in U2OS cells with V03-07005-GAM, V08-16072-GAM, V13-06190-GAM, V17-03019-GAM, DyLight 680-GAM, and Alexa Fluor 680-GAM at a 2.5×, 5×, 10×, and 15× molar excesses. Quantitative analysis of the data, expressed as Mean Total Intensity, which is the average total intensity of all pixels within a defined area or defined primary object such as a nucleus, is shown below, where “Neg” indicates the negative control condition.

Data set [1] in a line: Excitation/emission properties of dye NHS esters. Format: physicochemical. The source says:
The following properties of V03-07005, V08-16072, V13-06190, and V17-03019 were compared with commercially available dyes. DyLight 680 NHS is a non-pegylated benzopyrylium dye and the ‘V’ dyes are pegylated dyes described above.

Another data set has as its system U2OS cells. Kind of data set: Immunofluorescence cell based assays, overall summary. The settings on record: summary of all immunofluorescence experiments. The protocol: as §1
In the indicated experiments, the inventive compounds and commercial dye were evaluated for immunofluorescence in a cell based assay using the following protocol. Frozen U20S cell plates which were stored at −80° C. were thawed for 30 minutes at 50° C. Storage buffer (PBS) was removed and cells were permeabilized for 15 minutes with 0.1% Triton-X100 in 1×PBS buffer (100 μl/well). The cell plate was blocked for 60 minutes in 2% BSA/PBS-0.1% Triton-X100. Primary antibody, either mouse anti-ezrin (1.3 μg/ml) or mouse anti-NCoR2 (20 μg/ml), diluted in 2% BSA/PBS-0.1% Triton-X100 was added to the plate and incubated for one hour at room temperature. Control wells contained only 2% BSA/PBS-0.1% Triton-X100 blocker. […] The plates were scanned on ArrayScan Plate Reader.

For another data set, the system named is mouse IgG immunoglobulin. Kind of data set: Functional plate assay of dye-GAM conjugates, LiCor Odyssey 700 channel. Format: binding. Conditions: GAM conjugated with 5× molar excess, FIG. 6-7. The protocol:
Performance of dye-GAM and dye-GAR conjugates was evaluated in a functional assay. Wells of a 96-well black clear-bottom plate were coated with target protein mouse or rabbit IgG immunoglobulin. One hundred μl mouse or rabbit IgG, at 10 μg/ml, was applied to the corresponding wells in row 1. The target proteins were serially diluted 1:1 from the wells in rows 2 to 7 using 100 μl PBS. One hundred μl of samples from the wells in row 7 were discarded. One hundred μl PBS was added to the wells in row 8. Plates were incubated overnight at 4° C. and then blocked 2×200 μl with Thermo Scientific SuperBlock® Blocking Buffer. The coated plates were washed 2×200 μl with PBS-Tween and 1×200 μl with PBS. Based on the calculated concentrations, conjugates were diluted 1:250 (of 1 mg/ml) in PBS, added to the corresponding plates (100 μl/well) and then incubated for one hour in the dark. The plates were washed with 2×200 μl with PBS-Tween and 1×200 μl with PBS and filled with PBS buffer (100 μl/well) prior to scanning the black clear-bottom plates on LiCor Odyssey at 700 channel, to detect fluorescence intensity.
As shown in FIGS. 1-10, RFU and/or signal to background ratio (S/B) of the dyes conjugated to the indicated antibody were compared at various concentrations, using the indicated conjugation conditions.

A further data set concerns ezrin in U2OS cells. Kind of data set: Immunofluorescence cell based assay, detection of ezrin with dye-GAM. Conditions: 2.5×-15× molar excess. As to the method:
as §2, with “The plates were washed three times with 100 μl/well of PBST and once with 100 μl/well PBS, and Hoechst (diluted to 0.1 μg/ml in PBS) was added to each well (100 μl/well).” left out
Quantitative analysis of the data of FIGS. 17-19, expressed as Mean Total Intensity, which is the average total intensity of all pixels within a defined area or defined primary object such as a nucleus, is shown below; “Neg” indicates negative control.

As for `COCCOCCOCCOCCN(CCCS(=O)(=O)[O-])c1ccc2c(C(C)(C)C)cc(/C=C/C=C3/N(CCOCCOCCOCCOCCC(=O)O)c4ccc(S(=O)(=O)[O-])cc4C3(C)CCCS(=O)(=O)[O-])[o+]c2c1.[Na+].[Na+]` (stereo not shown) [Compound V13-06190, (E)-2-((E)-3-(4-tert-butyl-7-((3-sulfonatopropyl)(2,5,8,11-tetraoxatridecan-13-yl)amino)chromenylium-2-yl)allylidene)-1-(14-carboxy-3,6,9,12-tetraoxatetradecyl)-3-methyl-3-(3-sulfonatopropyl)indoline-5-sulfonate], the “quenching with molar excess” value with lamin B1 in U2OS cells is on record as “gradually quenching from 2.5× molar excess condition”; in the data set with HDAC2 in U2OS cells, “gradually quenching from 2.5× molar excess condition”; in the data set on NCoR2 in U2OS cells, “gradually quenched from the 2.5× molar excess condition”; with U2OS cells, “gradual quenching from 2.5× molar excess condition”. The Ex in data set [1] (EtOH) is given as 690 nm; in data set [1] (PBS), “about 675 nm”.
With `COCCOCCOCCOCCN(CCCS(=O)(=O)[O-])c1ccc2c(C(C)(C)C)cc(/C=C/C=C3/N(CCCCCC(=O)ON4C(=O)CCC4=O)c4ccc(S(=O)(=O)[O-])cc4C3(C)CCCS(=O)(=O)[O-])[o+]c2c1.[Na+].[Na+]` (stereo not shown) [V08-16072-NHS], in data set [1], the Em came out at 712 nm. The Ex in data set [1] (EtOH) is recorded as 691 (EtOH) nm; in data set [1] (PBS) it was 679 (PBS)* nm.
For `COCCOCCOCCOCCN(CCOCCOCCOCCOC)c1ccc2c(C(C)(C)C)cc(/C=C/C=C3/N(CCCS(=O)(=O)[O-])c4ccc(S(=O)(=O)[O-])cc4C3(C)CCCC(=O)ON3C(=O)CCC3=O)[o+]c2c1.[Na+]` (stereo not shown) [V03-07005-NHS] the same measures were 708 nm, 690 (EtOH) nm and 675 (PBS)* nm.
For `COCCOCCOCCOCCN(CCCS(=O)(=O)[O-])c1ccc2c(C(C)(C)C)cc(/C=C/C=C3/N(CCOCCOCCOCCOCCC(=O)ON4C(=O)CCC4=O)c4ccc(S(=O)(=O)[O-])cc4C3(C)CCCS(=O)(=O)[O-])[o+]c2c1.[Na+].[Na+]` (stereo not shown) [V13-06190-NHS], in that order: 712 nm, 691 (EtOH) nm and 679 (PBS)* nm.
For `COCCOCCOCCOCCN(CCCS(=O)(=O)[O-])c1ccc2c(C(C)(C)C)cc(/C=C/C=C3/N(CCCS(=O)(=O)[O-])c4ccc(S(=O)(=O)[O-])cc4C3(C)CCCC(=O)ON3C(=O)CCC3=O)[o+]c2c1.[Na+].[Na+]` (stereo not shown) [V17-03019-NHS] the same measures were 712 nm, 691 (EtOH) nm and 675 (PBS)* nm.
Regarding `COCCOCCOCCOCCN(CCCS(=O)(=O)[O-])c1ccc2c(C(C)(C)C)cc(/C=C/C=C3/N(CCCS(=O)(=O)[O-])c4ccc(S(=O)(=O)[O-])cc4C3(C)CCCC(=O)O)[o+]c2c1.[Na+].[Na+]` (stereo not shown) [Compound V17-03019, (E)-2-((E)-3-(4-tert-butyl-7-((3-sulfonatopropyl)(2,5,8,11-tetraoxatridecan-13-yl)amino)chromenylium-2-yl)allylidene)-3-(3-carboxypropyl)-3-methyl-1-(3-sulfonatopropyl)indoline-5-sulfonate], the Ex in data set [1] (EtOH) is on record as 690 nm; in data set [1] (PBS) it was “about 675 nm”.
In the case of `COCCOCCOCCOCCN(CCOCCOCCOCCOC)c1ccc2c(C(C)(C)C)cc(/C=C/C=C3/N(CCCS(=O)(=O)[O-])c4ccc(S(=O)(=O)[O-])cc4C3(C)CCCC(=O)O)[o+]c2c1.[Na+]` (stereo not shown) [Compound V03-07005, (E)-2-((E)-3-(4-tert-butyl-7-(di2,5,8,11-tetraoxatridecan-13-ylamino)chromenylium-2-yl)allylidene)-3-(3-carboxypropyl)-3-methyl-1-(3-sulfonatopropyl)indoline-5-sulfonate], in the data set on mouse IgG immunoglobulin, the “binding intensity (RFU), in words” value is recorded as “performed best of the benzopyrylium dyes”. The “staining / S/B performance, in words” value is given as “best performing benzopyrylium dye” with lamin B1 in U2OS cells (lamin B1, 2.5×-15× molar excess); “best performing benzopyrylium dye” with HDAC2 in U2OS cells (HDAC2, 2.5×-15× molar excess); “best performing benzopyrylium dye” with ezrin in U2OS cells; “best performing benzopyrylium dye” with NCoR2 in U2OS cells (NCoR2, 2.5×-15× molar excess). Besides, the results for the Ex in data set [1] (EtOH) and in data set [1] (PBS) were 690 nm and “about 675 nm”, respectively. For the same compound, the “staining performance, in words” value in the data set with U2OS cells is given as “best performing benzopyrylium dye”.
In the case of `COCCOCCOCCOCCN(CCCS(=O)(=O)[O-])c1ccc2c(C(C)(C)C)cc(/C=C/C=C3/N(CCCCCC(=O)O)c4ccc(S(=O)(=O)[O-])cc4C3(C)CCCS(=O)(=O)[O-])[o+]c2c1.[Na+].[Na+]` (stereo not shown) [Compound V08-16072, (E)-2-((E)-3-(4-tert-butyl-7-((3-sulfonatopropyl)(2,5,8,11-tetraoxatridecan-13-yl)amino)chromenylium-2-yl)allylidene)-1-(5-carboxypentyl)-3-methyl-3-(3-sulfonatopropyl)indoline-5-sulfonate], the “quenching with molar excess” value is “gradually quenching from 2.5× molar excess condition” with lamin B1 in U2OS cells, “gradually quenching from 2.5× molar excess condition” with HDAC2 in U2OS cells, “gradually quenched from the 2.5× molar excess condition” in the data set on NCoR2 in U2OS cells and “gradual quenching from 2.5× molar excess condition” in the data set with U2OS cells. In addition, the Ex in data set [1] (EtOH) is 690 nm; in data set [1] (PBS) it was “about 675 nm”.
